Literature values as cited in patent US20200353179A1, “Device for Deterring Abuse of Drugs” (EIGHTY EIGHT PHARMA, INC., priority 2017, published 2020).
Counter-ions that a name gives are not always drawn. Like-named read-outs stand apart in the source and are kept apart here.

Columns and labels:
[1] = system: pharmacologic effects of intravenously administered heroin
[2] = 800 mg daily for up to one week
[3] = system: animals

SMILES: O=C1CC[C@@]2(O)[C@H]3Cc4ccc(O)c5c4[C@@]2(CCN3CC2CC2)[C@H]1O5 [naltrexone hydrochloride]
- duration of blockade of pharmacologic effects of heroin ([1]; 50 mg naltrexone hydrochloride, 25 mg intravenously administered heroin): ≤ 24 hours
- duration of blockade ([1]; doubling the dose of naltrexone hydrochloride): 48 h
- effect on the subjective effects of intravenously administered opioids ([1]; intravenously administered opioids): markedly attenuates or completely blocks, reversibly
- duration of blockade ([1]; tripling the dose of naltrexone hydrochloride): about 72 hours
- toxicity in human subjects [2]: no evidence of toxicity
- signs produced by high doses ([3]; high doses, generally >1,000 mg/kg): salivation, depression/reduced activity, tremors, and convulsions
- cause of mortalities in animals ([3]; high-dose naltrexone administration): tonic-clonic convulsions and/or respiratory failure
